Values of other authors, collected in patent publication EP2703009A1, “Combination treatments involving antibodies to human PCSK9” (SANOFI, priority 2012, dated 2014).

Experiments:
[1] = after oral administration; cited from earlier work
PCSK9 = conditions: stated as known for statins and ezetimibe; limited or no information on ezetimibe alone; cited from earlier work
[2] = system: patients with genotype-confirmed hoFH; conditions: ezetimibe 10 mg/day added to the maximal dose of statins; cited from earlier work
[3] = in vivo; cited from earlier work

| Compound | half-life (elimination from plasma) [1] | PCSK9 expression (PCSK9) | total reduction of LDL-C levels [2] [%] | Frequent adverse events reported [3] | Less frequently reported adverse events [3] |
| --- | --- | --- | --- | --- | --- |
| CC(C)(Oc1ccc(C(=O)c2ccc(Cl)cc2)cc1)C(=O)O [Fenofibric acid] | 20 h | – | – | – | – |
| O=C(O)[C@H]1O[C@@H](Oc2ccc([C@@H]3[C@@H](CC[C@H](O)c4ccc(F)cc4)C(=O)N3c3ccc(F)cc3)cc2)[C@H](O)[C@@H](O)[C@@H]1O [ezetimibe-glucuronide] | approximately 22 hours | – | – | – | – |
| O=C1[C@H](CC[C@H](O)c2ccc(F)cc2)[C@@H](c2ccc(O)cc2)N1c1ccc(F)cc1 [ezetimibe] | – | upregulated | 27 | abdominal pain, diarrhea, flatulence, fatigue, increase ALT/AST, headache and myalgia | – |
| CC(C)OC(=O)C(C)(C)Oc1ccc(C(=O)c2ccc(Cl)cc2)cc1 [fenofibrate] | – | – | – | abdominal pain, nausea, vomiting, diarrhea, flatulence, increase ALT/AST | pancreatitis, thromboembolism (pulmonary embolism, deep venous thrombosis), biliary lithiasis, rash, pruritus, urticaria, photosensitivity reaction, increase creatinine and increase urea |
